The results in this text go back to patent publication US10414763B2 (CANCER RESEARCH TECHNOLOGY LIMITED, priority 2014, dated 2019).

A value given as a limit tells only on which side of the number the result lay.

The target of the experiment is T1, full-length human PKCι (Homo sapiens, UniProt P41743).
T1 construct: Recombinant, full-length human PKCι expressed in Sf21 insect cells is also commercially available; purchased EMD Millipore; host or cells: Sf21 insect cells (baculovirus)
T1 sequence (P41743 1-596): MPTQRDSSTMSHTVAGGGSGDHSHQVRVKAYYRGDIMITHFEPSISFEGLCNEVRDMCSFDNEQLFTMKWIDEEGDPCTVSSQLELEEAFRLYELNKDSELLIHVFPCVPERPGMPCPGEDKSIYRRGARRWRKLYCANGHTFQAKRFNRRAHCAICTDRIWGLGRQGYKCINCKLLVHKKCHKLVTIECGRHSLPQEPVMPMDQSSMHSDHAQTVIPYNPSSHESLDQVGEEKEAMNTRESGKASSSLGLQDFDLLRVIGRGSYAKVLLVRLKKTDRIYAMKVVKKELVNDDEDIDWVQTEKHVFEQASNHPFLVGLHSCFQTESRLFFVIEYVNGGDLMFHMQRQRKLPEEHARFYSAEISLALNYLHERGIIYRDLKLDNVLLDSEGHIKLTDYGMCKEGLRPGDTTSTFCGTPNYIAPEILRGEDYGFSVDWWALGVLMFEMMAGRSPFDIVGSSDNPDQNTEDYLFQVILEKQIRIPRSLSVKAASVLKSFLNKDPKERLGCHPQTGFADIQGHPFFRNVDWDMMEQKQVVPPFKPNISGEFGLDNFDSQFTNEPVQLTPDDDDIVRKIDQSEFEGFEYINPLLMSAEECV
The experiment is described as follows: PKCι IC50 IMAP fluorescence polarisation assay, full-length enzyme, 150 μM ATP. In kind it is biochemical. Conditions: read-out: IC50 in IMAP assay against full length PKCi at 150 μM ATP. The essentials:
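IMAP fluorescence polarisation kinase assay: 15 pM baculovirus-expressed human PKCiota with 100 nM FAM-pseudosubstrate peptide and 150 μM ATP, 1 h at 25 °C. IMAP detection reagent then 2 h at 25 °C before FP measurement. Inhibition referenced to no-compound and no-enzyme controls for IC50 fitting.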
The term IC50 denotes the concentration that gives 50% inhibition. `C[C@@H]1CNCC[C@H]1Nc1nc(-c2ccnc(Nc3nc(F)ccc3F)c2)nc2cncc(C3CC3)c12` (racemic) [Example 223, (±)-{5-Cyclopropyl-2-[2-(3,6-difluoro-pyridin-2-ylamino)-pyridin-4-yl]-pyrido[3,4-d]pyrimidin-4-yl}-((3,4-trans)-3-methyl-piperidin-4-yl)-amine]: the concentration for half-maximal inhibition (IC50) is < 100 nM.

On to `FC1CNCCC(Nc2nc(-c3ccnc4[nH]c5ccccc5c34)nc3cncc(C4CCC4)c23)C1` (stereo not shown) [Example 232, [5-Cyclobutyl-2-(9H-pyrido[2,3-b]indol-4-yl)-pyrido[3,4-d]pyrimidin-4-yl]-(6-fluoro-azepan-4-yl)-amine], for which the IC50 is < 100 nM.

As for `O=C(NC1CCCCC1)c1cc2c(-c3nc(N4CCNCC4)c4c(C5CC5)cncc4n3)ccnc2[nH]1` [Example 62, 4-(5-Cyclopropyl-4-piperazin-1-yl-pyrido[3,4-d]pyrimidin-2-yl)-1H-pyrrolo[2,3-b]pyridine-2-carboxylic acid cyclohexylamide], the IC50 was < 100 nM.

Regarding `CN(c1nc(-c2ccnc3[nH]c(-c4cc(F)ccc4Cl)cc23)nc2cncc(C3CC3)c12)[C@@H]1CCNC[C@@]1(C)O` (racemic) [Example 359, rac-(3R,4R)-4-({2-[2-(2-Chloro-5-fluoro-phenyl)-1H-pyrrolo[2,3-b]pyridin-4-yl]-5-cyclopropyl-pyrido[3,4-d]pyrimidin-4-yl}-methyl-amino)-3-methyl-piperidin-3-ol], the 50% inhibitory concentration (IC50) is < 100 nM.

`Cn1c(Nc2cc(-c3nc(N[C@H]4CCNCC4(C)C)c4c(C5CCC5)cncc4n3)ccn2)nc2ccccc21` [Example 281]: the IC50 is < 100 nM.

Consider `Cc1cc2c(-c3nc(N4CCCC5NCCCC54)c4c(C5CCC5)cncc4n3)ccnc2[nH]1` (stereo not shown) [Example 95, 5-Cyclobutyl-2-(2-methyl-1H-pyrrolo[2,3-b]pyridin-4-yl)-4-(octahydro-[1,5]naphthyridin-1-yl)-pyrido[3,4-d]pyrimidine], for which the half-maximal inhibitory concentration (IC50) is < 100 nM.

In the case of `Fc1cccnc1-c1cc2c(-c3nc(N4CC[C@H]5NCC[C@H]54)c4c(C5CC5)cncc4n3)ccnc2[nH]1` (racemic) [Example 56, (±)-5-Cyclopropyl-2-[2-(3-fluoro-pyridin-2-yl)-1H-pyrrolo[2,3-b]pyridin-4-yl]-4-(3,6- cis)-hexahydro-pyrrolo[3,2-b]pyrrol-1-yl-pyrido[3,4-d]pyrimidine], the IC50 is < 100 nM.

In the case of `CC1(C)CNCCC1Nc1nc(-c2ccnc(Nc3ccc(F)cn3)c2)nc2cncc(C3CC3)c12` (stereo not shown) [Example 48, {5-Cyclopropyl-2-[2-(5-fluoro-pyridin-2-ylamino)-pyridin-4-yl]-pyrido[3,4-d]pyrimidin-4-yl}-(3,3-dimethyl-piperidin-4-yl)-amine], the half-maximal inhibitory concentration (IC50) was < 100 nM.

In the case of `CN(c1nc(-c2ccnc3[nH]c4ccccc4c23)nc2cncc(C3CCC3)c12)C1CCNCC1(C)C` (stereo not shown) [Example 31, [5-Cyclobutyl-2-(9H-pyrido[2,3-b]indol-4-yl)-pyrido[3,4-d]pyrimidin-4-yl]-(3,3-dimethyl-piperidin-4-yl)-methyl-amine], the IC50 is < 100 nM.

Consider `FC(F)(F)c1cc2c(-c3nc(N4CC[C@@H]5CNC[C@@H]54)c4c(C5CC5)cncc4n3)ccnc2[nH]1` [Example 21, 5-Cyclopropyl-4-(3aR,6aR)-hexahydro-pyrrolo[3,4-b]pyrrol-1-yl-2-(2-trifluoromethyl-1H-pyrrolo[2,3-b]pyridin-4-yl)-pyrido[3,4-d]pyrimidine], for which the IC50 was < 100 nM.

For the molecule `O[C@]12CCN(c3nc(-c4ccnc5[nH]c6ccccc6c45)nc4cncc(C5CCC5)c34)[C@H]1CCNC2` (racemic) [Example 76, (±)-(3aS,7aS)-1-[5-Cyclobutyl-2-(9H-pyrido[2,3-b]indol-4-yl)-pyrido[3,4-d]pyrimidin-4-yl]-octahydro-pyrrolo[3,2-c]pyridin-3a-ol], the IC50 is < 100 nM.

Consider `CC1(C)CNCCC1Nc1nc(-c2ccnc(Nc3cc(C#N)ccn3)c2)nc2cncc(C3CCC3)c12` (stereo not shown) [Example 107, 2-{4-[5-Cyclobutyl-4-(3,3-dimethyl-piperidin-4-ylamino)-pyrido[3,4-d]pyrimidin-2-yl]-pyridin-2-ylamino}-isonicotinonitrile], for which the half-inhibitory concentration (IC50) is < 100 nM.

On to `C[C@@H]1CNCC[C@@H]1Nc1nc(-c2ccnc(Nc3ncccc3F)c2)nc2cncc(C3CC3)c12` (racemic) [Example 299, {5-Cyclopropyl-2-[2-(3-fluoro-pyridin-2-ylamino)-pyridin-4-yl]-pyrido[3,4-d]pyrimidin-4-yl}-(rac-(3R,4S)-3-methyl-piperidin-4-yl)-amine], for which the concentration for half-maximal inhibition (IC50) was in the range of 100 to 1000 nM.

For the molecule `CC1CC(Nc2nc(-c3ccnc(Nc4ncccc4F)c3)nc3cncc(C4CC4)c23)CC(C)N1` (stereo not shown) [Example 260, {5-Cyclopropyl-2-[2-(3-fluoro-pyridin-2-ylamino)-pyridin-4-yl]-pyrido[3,4-d]pyrimidin-4-yl}-(2,6-dimethyl-piperidin-4-yl)-amine], the 50% inhibitory concentration (IC50) lay in the range of 100 to 1000 nM.

Take `C[C@@H]1C[C@@H](Nc2nc(-c3ccnc(Nc4nc(F)ccc4F)c3)nc3cncc(C4CC4)c23)CCN1` (racemic) [Example 226, (±)-{5-Cyclopropyl-2-[2-(3,6-difluoro-pyridin-2-ylamino)-pyridin-4-yl]-pyrido[3,4-d]pyrimidin-4-yl}-((2,4-trans)-2-methyl-piperidin-4-yl)-amine]: the half-inhibitory concentration (IC50) fell in the range of 100 to 1000 nM.

On to `O[C@@]12CCN(c3nc(-c4ccnc5[nH]c(-c6cc(F)ccc6Cl)cc45)nc4cncc(C5CC5)c34)[C@@H]1CCNC2` (racemic) [Example 358, rac(1R,3aS)-1-{2-[2-(2-Chloro-5-fluoro-phenyl)-1H-pyrrolo[2,3-b]pyridin-4-yl]-5-cyclopropyl-pyrido[3,4-d]pyrimidin-4-yl}-octahydro-pyrrolo[3,2-c]pyridin-3a-ol], for which the IC50 was < 100 nM.

On to `CN(c1nc(-c2ccnc(Nc3ncn(Cc4ccccc4)n3)c2)nc2cncc(C3CC3)c12)C1CCNCC1(C)C` (racemic) [Example 238, rac-{2-[2-(1-Benzyl-1H-1,2,4-triazol-3-ylamino)-pyridin-4-yl]-5-cyclopropyl-pyrido[3,4-d]pyrimidin-4-yl}-(3,3-dimethyl-piperidin-4-yl)-methyl-amine], for which the 50% inhibitory concentration (IC50) was < 100 nM.

Take `C[C@@H]1CNCC[C@H]1Nc1nc(-c2ccnc(Nc3nc(F)cc(F)c3F)c2)nc2cncc(C3CC3)c12` (racemic) [Example 304, {5-Cyclopropyl-2-[2-(3,4,6-trifluoro-pyridin-2-ylamino)-pyridin-4-yl]-pyrido[3,4-d]pyrimidin-4-yl}-(rac-(3R,4R)-3-methyl-piperidin-4-yl)-amine]: the IC50 was < 100 nM.

In the case of `CC1(C)CNCCC1Nc1nc(-c2ccnc(Nc3ncccc3F)c2)nc2cncc(C3CC3)c12` (stereo not shown) [Example 49, {5-Cyclopropyl-2-[2-(3-fluoro-pyridin-2-ylamino)-pyridin-4-yl]-pyrido[3,4-d]pyrimidin-4-yl}-(3,3-dimethyl-piperidin-4-yl)-amine], the half-maximal inhibitory concentration (IC50) is < 100 nM.

As for `O[C@@H]1CNCC[C@H]1Nc1nc(-c2ccnc(Nc3ccc4ccccc4n3)c2)nc2cncc(C3CCC3)c12` (racemic) [Example 273, rac-(3R,4R)-4-{5-Cyclobutyl-2-[2-(quinolin-2-ylamino)-pyridin-4-yl]-pyrido[3,4-d]pyrimidin-4-ylamino}-piperidin-3-ol], the concentration for half-maximal inhibition (IC50) is < 100 nM.

In the case of `O[C@@H]1CCN(c2nc(-c3ccnc4[nH]c5ccccc5c34)nc3cncc(C4CCC4)c23)C1` [Example 252, (R)-1-[5-Cyclobutyl-2-(9H-pyrido[2,3-b]indol-4-yl)-pyrido[3,4-d]pyrimidin-4-yl]-pyrrolidin-3-ol], the half-inhibitory concentration (IC50) fell in the range of 1000 to 10000 nM.

As for `CC1(C)CNCCC1Nc1nc(-c2ccnc(Nc3ccccc3)c2)nc2cncc(C3CC3)c12` (stereo not shown) [Example 47, [5-Cyclopropyl-2-(2-phenylamino-pyridin-4-yl)-pyrido[3,4-d]pyrimidin-4-yl]-(3,3-dimethyl-piperidin-4-yl)-amine], the IC50 is < 100 nM.

`CN(c1nc(-c2ccnc(Nc3nc(F)ccc3F)c2)nc2cncc(C3CC3)c12)[C@H]1CCNCC1(C)C` [Example 331, 5-Cyclopropyl-2-[2-[(3,6-difluoro-2-pyridyl)amino]-4-pyridyl]-N-[(4S)-3,3-dimethyl-4-piperidyl]-N-methyl-pyrido[3,4-d]pyrimidin-4-amine]: the 50% inhibitory concentration (IC50) is < 100 nM.

`CC1(C)CNCCC1Nc1nc(-c2ccnc(Nc3cc4ccccn4n3)c2)nc2cncc(C3CC3)c12` (stereo not shown) [Example 35, {5-Cyclopropyl-2-[2-(pyrazolo[1,5-a]pyridin-2-ylamino)-pyridin-4-yl]-pyrido[3,4-d]pyrimidin-4-yl}-(3,3-dimethyl-piperidin-4-yl)-amine]: the 50% inhibitory concentration (IC50) is < 100 nM.

As to `Fc1cccc(F)c1Nc1cc(-c2nc(N3CCOC4CNCC43)c3c(C4CCC4)cncc3n2)ccn1` (stereo not shown) [Example 258, {4-[5-Cyclobutyl-4-(hexahydro-pyrrolo[3,4-b]-1,4-oxazin-4-yl)-pyrido[3,4-d]pyrimidin-2-yl]-pyridin-2-yl}-(2,6-difluoro-phenyl)-amine], the IC50 was < 100 nM.
